Molecular target: T1, S-nitrosoglutathione reductase (GSNOR) (Homo sapiens, UniProt P11766)
T1 construct: made in house; host or cells: E. coli
Assay: GSNOR assay (inhibition of GSNOR activity, NADH absorbance at 340 nm)
Type: biochemical
Settings: GSNOR inhibitor activity, Tables 1-6; read-out: IC50 range
Description: Various compounds were tested in vitro for their ability to inhibit GSNOR activity.
GSNOR expression and purification is described in Biochemistry 2000, 39, 10720-10729.
Pre-cultures were grown from stabs of a GSNOR glycerol stock in 2XYT media containing 100 ug/ml ampicillin after an overnight incubation at 37° C. […] GSNOR expression was induced with 0.1% arabinose in an overnight incubation at 20° C.
E. coli cell paste was lysed by nitrogen cavitation and the clarified lysate purified by Ni affinity chromatography on an AKTA FPLC (Amersham Pharmacia). The column was eluted in 20 mM Tris pH 8.0/250 mM NaCl with a 0-500 mM imidazole gradient. Eluted GSNOR fractions containing the Smt-GSNOR fusion were digested overnight with Ulp-1 at 4° C. to remove the affinity tag then re-run on the Ni column under the same conditions. GSNOR was recovered in the flowthrough fraction and for crystallography is further purified by Q-Sepharose and Heparin flowthrough chromatography in 20 mM Tris pH 8.0, 1 mM DTT, 10 uM ZnSO4.
GSNOR assay: GSNO and enzyme/NADH Solutions are made up fresh each day. The solutions are filtered and allowed to warm to room temperature. GSNO solution: 100 mM NaPO4 (pH 7.4), 0.480 mM GSNO. 396 μL of GSNO Solution is added to a cuvette followed by 8 μL of test compound in DMSO (or DMSO only for full reaction control) and mixed with the pipette tip. Compounds to be tested are made up at a stock concentration of 10 mM in 100% DMSO. 2 fold serial dilutions are done in 100% DMSO. 8 μL of each dilution are added to an assay so that the final concentration of DMSO in the assay is 1%. The concentrations of compounds tested range from 100 to 0.003 μM. Enzyme/NADH solution: 100 mM NaPO4 (pH 7.4), 0.600 mM NADH, 1.0 μg/mL GSNO Reductase. 396 μL of the Enzyme/NADH solution is added to the cuvette to start the reaction. The cuvette is placed in the Cary 3E UV/Visible Spectrophotometer and the change in 340 nm absorbance/min at 25° C. is recorded for 3 minutes. The assays are done in triplicate for each compound concentration. IC50's for each compound are calculated using the standard curve analysis in the Enzyme Kinetics Module of SigmaPlot.
Final assay conditions: 100 mM NaPO4, pH 7.4, 0.240 mM GSNO, 0.300 mM NADH, 0.5 μg/mL GSNO Reductase, and 1% DMSO. Final volume: 800 μL/cuvette.

T1 sequence (P11766 whole entry): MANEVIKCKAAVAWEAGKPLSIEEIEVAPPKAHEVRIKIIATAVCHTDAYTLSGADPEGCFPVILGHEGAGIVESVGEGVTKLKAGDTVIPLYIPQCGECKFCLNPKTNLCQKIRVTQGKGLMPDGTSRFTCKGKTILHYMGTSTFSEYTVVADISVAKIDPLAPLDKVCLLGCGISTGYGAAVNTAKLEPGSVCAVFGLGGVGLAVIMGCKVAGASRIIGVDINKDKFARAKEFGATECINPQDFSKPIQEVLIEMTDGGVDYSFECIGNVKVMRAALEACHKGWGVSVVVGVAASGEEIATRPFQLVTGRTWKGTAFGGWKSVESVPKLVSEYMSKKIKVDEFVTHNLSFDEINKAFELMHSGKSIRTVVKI

| SMILES | IC50 |
| --- | --- |
| O=C(O)c1ccc(Oc2coc3cc(O)ccc3c2=O)cc1 [Compound V-12, 4-(7-hydroxy-4-oxo-4H-chromen-3-yloxy)benzoic acid] | 1000 to 10000 nM |
| O=C(O)c1ccc(Oc2c(C(F)(F)F)oc3cc(O)ccc3c2=O)cc1O [Compound V-13, 2-hydroxy-4-(7-hydroxy-4-oxo-2-(trifluoromethyl)-4H-chromen-3-yloxy)benzoic acid] | 100 to 1000 nM |
| CN(c1ccc(C(=O)O)cc1)c1c(C(F)(F)F)oc2cc(O)ccc2c1=O [Compound V-14, 4-((7-hydroxy-4-oxo-2-(trifluoromethyl)-4H-chromen-3-yl)(methyl)amino)benzoic acid] | 1000 to 10000 nM |
| O=C(O)c1ccc(Nc2c(C(F)(F)F)oc3cc(O)ccc3c2=O)cc1 [Compound V-15, 4-(7-hydroxy-4-oxo-2-(trifluoromethyl)-4H-chromen-3-ylamino)benzoic acid] | 1000 to 10000 nM |
| O=c1c(Oc2ccc([N+](=O)[O-])c(O)c2)c(C(F)(F)F)oc2cc(O)ccc12 [Compound V-16, 7-hydroxy-3-(3-hydroxy-4-nitrophenoxy)-2-(trifluoromethyl)-4H-chromen-4-one] | < 100 nM |
| O=c1c(Oc2ccc(O)c([N+](=O)[O-])c2)c(C(F)(F)F)oc2cc(O)ccc12 [Compound V-17, 7-hydroxy-3-(4-hydroxy-3-nitrophenoxy)-2-(trifluoromethyl)-4H-chromen-4-one] | 100 to 1000 nM |
| O=C(O)c1ccc(-c2ncc3cc(O)ccc3n2)cc1 [II-1] | < 100 nM |
| O=C(O)c1ccc(-c2ncc3cc(O)ccc3n2)c(Cl)c1 [II-3] | < 100 nM |
| Cc1cc(C(=O)O)ccc1-c1ncc2cc(O)ccc2n1 [II-4] | < 100 nM |
| COc1cc(C(=O)O)ccc1-c1ncc2cc(O)ccc2n1 [II-5] | < 100 nM |
| O=C(O)c1ccc(-c2ncc3cc(O)ccc3n2)c(F)c1 [II-6] | < 100 nM |
| O=C(O)C1CCN(c2ncc3cc(O)ccc3n2)CC1 [II-7] | 1000 to 10000 nM |
| O=C(O)c1ccc(-c2nc3ccc(O)cc3nc2C(F)(F)F)c(Cl)c1 [II-8] | < 100 nM |
| Oc1ccc2nc(-c3ccc(-c4nn[nH]n4)cc3)c(C(F)(F)F)nc2c1 [II-10] | < 100 nM |
| O=C(O)C1CCN(c2nc3ccc(O)cc3nc2C(F)(F)F)CC1 [II-11] | < 100 nM |
| O=C(O)C1CC=C(c2nc3ccc(O)cc3nc2C(F)(F)F)CC1 (stereo not shown) [II-12] | < 100 nM |
| Oc1ccc2nc(C(F)(F)F)c(-c3ccc(-c4nnn[nH]4)cc3)nc2c1 [II-16] | 100 to 1000 nM |
| O=C(O)c1ccc(-c2nnc3cc(O)ccc3n2)c(F)c1 [II-20] | < 100 nM |
| O=C(O)c1ccc(-c2cc3ccc(O)cc3cn2)c(F)c1 [II-24, 3-fluoro-4-(7-hydroxyisoquinolin-3-yl)benzoic acid] | < 100 nM |
| Cc1c(-c2ccc(C(=O)O)cc2)ncc2cc(O)ccc12 [II-25, 4-(7-hydroxy-4-methylisoquinolin-3-yl)benzoic acid] | 100 to 1000 nM |
| O=C(O)c1ccc(-c2nc3ccc(O)cc3nc2C(F)(F)F)c(F)c1 [II-26, 3-fluoro-4-(6-hydroxy-3-(trifluoromethyl)quinoxalin-2-yl)benzoic acid] | < 100 nM |
| O=C(O)[C@H]1CC[C@H](c2nc3ccc(O)cc3nc2C(F)(F)F)CC1 [II-27, (trans)-4-(6-hydroxy-3-(trifluoromethyl)quinoxalin-2-yl)cyclohexanecarboxylic acid] | < 100 nM |
| O=C(O)[C@H]1CC[C@@H](c2nc3ccc(O)cc3nc2C(F)(F)F)CC1 [II-28, (cis)-4-(6-hydroxy-3-(trifluoromethyl)quinoxalin-2-yl)cyclohexanecarboxylic acid] | 1000 to 10000 nM |

Now from value to compound:

| IC50 | SMILES |
| --- | --- |
| < 100 nM | COc1cc(C(=O)O)ccc1-c1ccc2cc(O)ccc2c1 [III-3] |
| 1000 to 10000 nM | O=C(O)c1ccc(-c2ccc3cc(O)ccc3c2)cn1 [III-4] |
| < 100 nM | CN(C)c1cc(C(=O)O)ccc1-c1ccc2cc(O)ccc2c1 [III-5] |
| < 100 nM | N#Cc1cc(C(=O)O)ccc1-c1ccc2cc(O)ccc2c1 [III-6] |
| 100 to 1000 nM | O=C(O)c1ccc(-c2ccc3cc(O)ccc3c2)nc1 [III-7] |
| 100 to 1000 nM | O=C(O)c1cnc(-c2ccc3cc(O)ccc3c2)cn1 [III-8] |
| 100 to 1000 nM | O=C(O)c1cnc(-c2ccc3cc(O)ccc3c2)nc1 [III-9] |
| 100 to 1000 nM | O=C(O)c1ccc(-c2ccc3cc(O)ccc3c2)c(N2CCOCC2)c1 [III-10] |
| 1000 to 10000 nM | O=C(O)c1ccc(-c2ccc3cc(O)ccc3c2)nn1 [III-11] |
| 1000 to 10000 nM | O=C(O)c1ncc(-c2ccc3cc(O)ccc3c2)cn1 [III-14] |
| < 100 nM | Oc1ccc2cc(-c3ccc(-c4nnn[nH]4)cc3)ccc2c1 [III-18] |
| < 100 nM | O=C(O)c1ccc(-c2ccc3cc(O)ccc3c2)c(C(F)(F)F)c1 [III-20, 4-(6-hydroxynaphthalen-2-yl)-3-(trifluoromethyl)benzoic acid] |
| < 100 nM | O=C(O)c1ccc(-c2cc3ccc(O)cc3cc2F)c(Cl)c1 [III-21, 3-chloro-4-(3-fluoro-6-hydroxynaphthalen-2-yl)benzoic acid] |
| < 100 nM | O=C(O)c1ccc(-c2cc3ccc(O)cc3cc2Cl)cc1 [III-22, 4-(3-chloro-6-hydroxynaphthalen-2-yl)benzoic acid] |
| < 100 nM | O=C(O)c1ccc(-c2cc3ccc(O)cc3cc2F)cc1 [III-23, 4-(3-fluoro-6-hydroxynaphthalen-2-yl)benzoic acid] |
| < 100 nM | COc1c(-c2ccc(C(=O)O)cc2)ccc2cc(O)ccc12 [III-24, 4-(6-hydroxy-1-methoxynaphthalen-2-yl)benzoic acid] |
| 1000 to 10000 nM | O=C(O)c1ccc(-c2cc3ccc(O)cc3cc2O)cc1 [III-25, 4-(3,6-dihydroxynaphthalen-2-yl)benzoic acid] |
| < 100 nM | O=C(O)c1ccc(-c2ccc3cc(O)ccc3c2F)cc1 [III-26, 4-(1-fluoro-6-hydroxynaphthalen-2-yl)benzoic acid] |

| IC50 | SMILES |
| --- | --- |
| < 100 nM | Cc1cc2cc(O)ccc2cc1-c1ccc(C(=O)O)cc1 [III-27, 4-(6-hydroxy-3-methylnaphthalen-2-yl)benzoic acid] |
| < 100 nM | N#Cc1c(-c2ccc(C(=O)O)cc2F)ccc2cc(O)ccc12 [III-29] |
| < 100 nM | O=C(O)c1ccc(-c2ccc3c(F)c(O)ccc3c2)c(Cl)c1 [III-30] |
| < 100 nM | O=C(O)c1ccc(-c2ccc3c(F)c(O)ccc3c2)c(F)c1 [III-32] |
| < 100 nM | Cc1cc(C(=O)O)ccc1-c1ccc2c(F)c(O)ccc2c1 [III-33] |
| 100 to 1000 nM | COc1cc(-c2ccc3cc(O)ccc3c2)ccc1C(=O)O [III-34, 4-(6-hydroxynaphthalen-2-yl)-2-methoxybenzoic acid] |
| < 100 nM | O=C(O)c1ccc(-c2ccc3cc(O)ccc3c2)cc1O [III-35, 2-hydroxy-4-(6-hydroxynaphthalen-2-yl)benzoic acid] |
| 100 to 1000 nM | O=[N+]([O-])c1cc(-c2ccc3cc(O)ccc3c2)ccc1O [III-36, 6-(4-hydroxy-3-nitrophenyl)naphthalen-2-ol] |
| < 100 nM | Cc1cc(C(=O)O)ccc1-c1ccc2cc(O)ccc2c1 [III-37, 4-(6-hydroxynaphthalen-2-yl)-3-methylbenzoic acid] |
| < 100 nM | O=C(O)c1ccc(-c2cc(F)c3cc(O)ccc3c2)c(F)c1 [III-38, 3-fluoro-4-(4-fluoro-6-hydroxynaphthalen-2-yl)benzoic acid] |
| < 100 nM | O=C(O)c1ccc(-c2cc(F)c3cc(O)ccc3c2)cc1 [III-39, 4-(4-fluoro-6-hydroxynaphthalen-2-yl)benzoic acid] |
| < 100 nM | O=C(O)c1ccc(-c2cc(F)c3c(F)c(O)ccc3c2)c(F)c1 [III-40, 4-(4,5-difluoro-6-hydroxynaphthalen-2-yl)-3-fluorobenzoic acid] |
| < 100 nM | Cc1cc(C(=O)O)ccc1-c1cc(F)c2c(F)c(O)ccc2c1 [III-41, 4-(4,5-difluoro-6-hydroxynaphthalen-2-yl)-3-methylbenzoic acid] |
| < 100 nM | O=C(O)c1ccc(-c2cc(F)c3c(F)c(O)ccc3c2)cc1 [III-42, 4-(4,5-difluoro-6-hydroxynaphthalen-2-yl)benzoic acid] |
| < 100 nM | COc1cc(C(=O)O)ccc1-c1cc(F)c2c(F)c(O)ccc2c1 [III-43, 4-(4,5-difluoro-6-hydroxynaphthalen-2-yl)-3-methoxybenzoic acid] |
| 100 to 1000 nM | COCc1oc2cc(O)ccc2c(=O)c1-c1ccc(C(=O)O)cc1 [IV-2] |
| 100 to 1000 nM | Cc1oc2cc(O)ccc2c(=O)c1-c1ccc(C(=O)O)cc1 [IV-5] |
